These results are taken from patent US8476298B2 (Exelixis, Inc., priority 2003, dated 2013).

Assay [1] concerns the target T1, Flt-3 (baculovirus expressed human Flt-3 kinase domain R571-S993) (Homo sapiens, UniProt P36888).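 Note: Luciferase-coupled chemiluminescent kinase assay, activity read as percent ATP left after a 3 h reaction at room temperature, ATP near KM, 10-point dose-response.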
T1 construct: human Flt-3 kinase domain R571-S993; host or cells: baculovirus expression
T1 sequence (P36888 571-993): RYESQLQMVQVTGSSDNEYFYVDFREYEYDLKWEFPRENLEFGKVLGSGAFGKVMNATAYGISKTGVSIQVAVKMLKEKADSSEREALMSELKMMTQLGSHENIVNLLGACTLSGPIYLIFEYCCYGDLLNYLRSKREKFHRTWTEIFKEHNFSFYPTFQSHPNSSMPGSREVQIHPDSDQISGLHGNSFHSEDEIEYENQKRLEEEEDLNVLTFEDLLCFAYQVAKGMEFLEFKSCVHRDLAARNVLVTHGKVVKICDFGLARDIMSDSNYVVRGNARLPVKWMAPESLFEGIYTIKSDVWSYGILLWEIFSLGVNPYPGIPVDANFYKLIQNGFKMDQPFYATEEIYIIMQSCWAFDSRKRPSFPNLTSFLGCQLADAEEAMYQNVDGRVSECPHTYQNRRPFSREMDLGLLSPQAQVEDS
Description: biochemical. Conditions: read-out: flt3 IC50.
Description: Kinase activity and compound inhibition are investigated using one or more of the three assay formats described below. The ATP concentrations for each assay are selected to be close to the Michaelis-Menten constant (KM) for each individual kinase. Dose-response experiments are performed at 10 different inhibitor concentrations in a 384-well plate format.
Biochemical activity for flt-3 was assessed using a Luciferase-Coupled Chemiluminescent Kinase assay (LCCA) format. Kinase activity was measured as the percent ATP remaining following the kinase reaction. Remaining ATP was detected by luciferase-luciferin-coupled chemiluminescence. […] The mixture is incubated at ambient temperature for 3 hours after which 20 uL luciferase-luciferin mix is added and the chemiluminescent signal read using a Wallac Victor^2 reader.

Assay [2] has as its target T2, c-Met (baculovirus expressed human c-Met kinase domain P948-S1343) (Homo sapiens, UniProt P08581).
T2 construct: human c-Met kinase domain P948-S1343; host or cells: baculovirus expression
Description: c-Met Luciferase-Coupled Chemiluminescent Kinase assay (LCCA).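 Note: kinase activity read as percent ATP left after reaction, by luciferase-luciferin chemiluminescence, with 1 µM ATP and 1 µM poly-EY substrate, 2 h at ambient temperature, 10-point dose-response.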 The assay is classed as biochemical.
Description: Kinase activity and compound inhibition are investigated using one or more of the three assay formats described below. The ATP concentrations for each assay are selected to be close to the Michaelis-Menten constant (KM) for each individual kinase. Dose-response experiments are performed at 10 different inhibitor concentrations in a 384-well plate format. […] Typically H is close to unity. c-Met Assay
c-Met biochemical activity was assessed using a Luciferase-Coupled Chemiluminescent Kinase assay (LCCA) format as described above. Again, kinase activity was measured as the percent ATP remaining following the kinase reaction. Remaining ATP was detected by luciferase-luciferin-coupled chemiluminescence. Specifically, the reaction was initiated by mixing test compounds, 1 μM ATP, 1 μM poly-EY and 10 nM c-Met (baculovirus expressed human c-Met kinase domain P948-S1343) in a 20 uL assay buffer (20 mM Tris-HCL pH7.5, 10 mM MgCl2, 0.02% Triton X-100, 100 mM DTT, 2 mM MnCu2). The mixture is incubated at ambient temperature for 2 hours after which 20 uL luciferase-luciferin mix is added and the chemiluminescent signal read using a Wallac Victor^2 reader.

The target in a further assay is c-Kit kinase (Homo sapiens, UniProt P10721). Description: c-Kit AlphaScreen kinase assay.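 Note: c-Kit kinase phosphorylating biotinylated poly(Glu,Tyr), ATP near its KM, 1 h reaction at ambient temperature, AlphaScreen chemiluminescence with streptavidin donor and anti-phosphotyrosine acceptor beads, 10-point inhibitor titration.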 The assay is classed as biochemical.
Sequence of c-Kit kinase (P10721 26-976): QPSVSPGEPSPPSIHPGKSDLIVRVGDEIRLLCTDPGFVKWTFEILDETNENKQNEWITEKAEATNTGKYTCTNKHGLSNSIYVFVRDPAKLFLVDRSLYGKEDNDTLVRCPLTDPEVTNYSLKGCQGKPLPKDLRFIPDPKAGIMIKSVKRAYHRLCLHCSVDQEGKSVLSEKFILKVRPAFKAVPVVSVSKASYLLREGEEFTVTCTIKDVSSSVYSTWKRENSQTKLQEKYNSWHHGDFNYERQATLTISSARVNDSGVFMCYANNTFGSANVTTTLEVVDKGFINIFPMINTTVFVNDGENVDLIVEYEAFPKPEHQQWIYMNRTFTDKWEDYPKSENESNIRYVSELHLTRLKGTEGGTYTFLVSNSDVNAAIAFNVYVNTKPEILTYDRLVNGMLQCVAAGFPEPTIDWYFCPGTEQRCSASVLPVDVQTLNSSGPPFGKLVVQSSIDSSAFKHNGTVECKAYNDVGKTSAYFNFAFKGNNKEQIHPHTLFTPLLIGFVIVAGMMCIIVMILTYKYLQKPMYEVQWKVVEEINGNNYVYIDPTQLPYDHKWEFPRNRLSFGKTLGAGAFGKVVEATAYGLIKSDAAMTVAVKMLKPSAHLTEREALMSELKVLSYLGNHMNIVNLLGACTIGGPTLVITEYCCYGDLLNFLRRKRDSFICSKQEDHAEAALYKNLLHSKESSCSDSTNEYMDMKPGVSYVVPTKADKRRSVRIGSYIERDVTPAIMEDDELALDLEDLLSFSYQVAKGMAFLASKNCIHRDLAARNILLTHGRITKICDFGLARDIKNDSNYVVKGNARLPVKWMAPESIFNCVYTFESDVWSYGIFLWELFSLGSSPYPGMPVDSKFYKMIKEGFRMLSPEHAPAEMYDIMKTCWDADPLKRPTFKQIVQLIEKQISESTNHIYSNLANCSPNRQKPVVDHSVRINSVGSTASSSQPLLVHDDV
The target of assay [3] is T3, Flt-4 (baculovirus expressed human Flt-4 kinase domain D725-R1298) (Homo sapiens, UniProt P35916).
T3 construct: human Flt-4 kinase domain D725-R1298; host or cells: baculovirus expression
T3 sequence (P35916 725-1298 isoform P35916-1): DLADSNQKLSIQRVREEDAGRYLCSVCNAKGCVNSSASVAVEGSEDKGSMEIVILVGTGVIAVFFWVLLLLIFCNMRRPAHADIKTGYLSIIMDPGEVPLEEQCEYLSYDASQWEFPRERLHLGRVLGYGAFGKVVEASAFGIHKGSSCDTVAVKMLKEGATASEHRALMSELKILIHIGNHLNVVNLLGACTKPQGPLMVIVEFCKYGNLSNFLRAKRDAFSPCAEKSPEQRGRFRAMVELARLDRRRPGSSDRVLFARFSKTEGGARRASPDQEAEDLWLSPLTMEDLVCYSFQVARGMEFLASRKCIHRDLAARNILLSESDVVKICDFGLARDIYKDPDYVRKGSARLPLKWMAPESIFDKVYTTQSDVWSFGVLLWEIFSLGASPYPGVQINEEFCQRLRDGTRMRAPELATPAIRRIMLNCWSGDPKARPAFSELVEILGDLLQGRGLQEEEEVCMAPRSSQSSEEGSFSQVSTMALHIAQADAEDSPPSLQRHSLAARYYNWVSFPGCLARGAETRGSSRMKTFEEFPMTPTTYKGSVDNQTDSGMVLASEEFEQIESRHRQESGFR
Kind of assay: flt-4 Alphascreen Tyrosine Kinase assay.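 Note: AlphaScreen chemiluminescence read-out of biotinylated poly(Glu,Tyr) 4:1 phosphorylation via streptavidin donor and PY100 anti-phosphotyrosine acceptor beads, ATP near KM, 1 hr kinase reaction, 10-point dose-response.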 Conditions: read-out: flt4 IC50. The assay is classed as biochemical. For orientation: Bead proximity is the source of the signal in Alpha formats.

The target in assay [4] is T4, KDR (baculovirus expressed human KDR kinase domain D807-V1356) (Homo sapiens, UniProt P35968).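 Note: Luciferase-coupled chemiluminescent kinase assay, activity read as percent ATP left after 4 h reaction at ambient temperature, ATP near KM, 10-point dose-response in 384-well plates.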
T4 construct: human KDR kinase domain D807-V1356; host or cells: baculovirus expression
T4 sequence (P35968 807-1356): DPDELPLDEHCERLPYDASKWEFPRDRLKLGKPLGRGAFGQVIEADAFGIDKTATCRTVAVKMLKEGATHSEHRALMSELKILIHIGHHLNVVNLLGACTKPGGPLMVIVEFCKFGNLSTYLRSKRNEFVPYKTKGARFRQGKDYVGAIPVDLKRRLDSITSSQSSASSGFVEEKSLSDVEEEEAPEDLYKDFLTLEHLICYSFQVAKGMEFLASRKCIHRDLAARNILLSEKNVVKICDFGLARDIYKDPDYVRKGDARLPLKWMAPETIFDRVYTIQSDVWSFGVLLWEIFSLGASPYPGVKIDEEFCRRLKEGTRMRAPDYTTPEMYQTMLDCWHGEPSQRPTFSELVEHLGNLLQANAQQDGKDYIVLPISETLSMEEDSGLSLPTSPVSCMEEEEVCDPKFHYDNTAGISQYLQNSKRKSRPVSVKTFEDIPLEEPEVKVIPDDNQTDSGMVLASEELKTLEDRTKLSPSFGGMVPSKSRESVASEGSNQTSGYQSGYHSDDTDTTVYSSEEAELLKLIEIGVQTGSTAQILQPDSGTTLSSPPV
Description: biochemical.

The mark [5] stands for this setting: Table 4, inhibition as IC50 class.

SMILES strings stand for the structures. Read-outs that look alike come from different tables or passages of the source.

T2 sequence (P08581 1011-1343 limits assumed): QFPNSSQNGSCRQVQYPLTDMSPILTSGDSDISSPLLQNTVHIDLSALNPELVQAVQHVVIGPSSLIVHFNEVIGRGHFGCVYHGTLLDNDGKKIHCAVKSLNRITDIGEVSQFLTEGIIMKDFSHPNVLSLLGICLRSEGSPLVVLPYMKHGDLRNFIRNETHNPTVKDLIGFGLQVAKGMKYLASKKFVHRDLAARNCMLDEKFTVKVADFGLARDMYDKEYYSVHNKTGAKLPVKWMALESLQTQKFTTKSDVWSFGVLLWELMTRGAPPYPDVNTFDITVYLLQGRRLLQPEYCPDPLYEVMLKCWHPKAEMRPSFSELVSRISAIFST

A word on the IC50: it is the point on the concentration scale where inhibition reaches its midpoint. Consider `COc1ccc(Br)cc1CCNC(=O)C(=O)Nc1ccc(Oc2ccnc3cc(OCC4CCNCC4)c(OC)cc23)c(F)c1` [Example 280, N-{2-[5-bromo-2-(methyloxy)phenyl]ethyl}-N′-[3-fluoro-4-({6-(methyloxy)-7-[(piperidin-4-ylmethyl)oxy]quinolin-4-yl}oxy)phenyl]ethanediamide], for which the IC50 (in assay [1] (setting [5]); in assay [2] (setting [5]); against c-Kit kinase (setting [5]); in assay [3] (setting [5]); in assay [4] (setting [5])) was under 50 nM each time.
As for `COc1cc2c(Oc3ccc(NC(=O)C(=O)NCc4cc(C(F)(F)F)ccc4F)cc3F)ccnc2cc1OCC1CCNCC1` [Example 281, N-[3-fluoro-4-({6-(methyloxy)-7-[(piperidin-4-ylmethyl)oxy]quinolin-4-yl}oxy)phenyl]-N′-{[2-fluoro-5-(trifluoromethyl)phenyl]methyl}ethanediamide], the half-inhibitory concentration (IC50) in assay [1] (setting [5]) was under 50 nM; in assay [2] (setting [5]), under 50 nM; on c-Kit kinase (setting [5]) it was 50 to 500 nM; in assay [3] (setting [5]), 50 to 500 nM; in assay [4] (setting [5]) it was under 50 nM.
For `COc1cc2c(Oc3ncc(NC(=O)C4(C(=O)Nc5ccc(F)cc5)CC4)cc3Cl)ccnc2cc1OCC1CCNCC1` [Example 282, N-[5-chloro-6-({6-(methyloxy)-7-[(piperidin-4-ylmethyl)oxy]quinolin-4-yl}oxy)pyridin-3-yl]-N′-(4-fluorophenyl)cyclopropane-1,1-dicarboxamide], the 50% inhibitory concentration (IC50) (in assay [1]; in assay [2]; at c-Kit kinase; in assay [3]; in assay [4]) was under 50 nM each time.
`COc1cc2c(Oc3ccc(NC(=O)C(=O)NC(C)c4ccc(F)cc4)cc3F)ccnc2cc1OCC1CCNCC1` (stereo not shown) [Example 283, N-[3-fluoro-4-({6-(methyloxy)-7-[(piperidin-4-ylmethyl)oxy]quinolin-4-yl}oxy)phenyl]-N′-[1-(4-fluorophenyl)ethyl]ethanediamide]: the IC50 in assay [1] was under 50 nM; in assay [2], under 50 nM; at c-Kit kinase, 50 to 500 nM; in assay [3], 50 to 500 nM; in assay [4] it was under 50 nM.
With `COc1cc2c(Oc3ccc(NC(=O)C(=O)N[C@@H](Cc4ccccc4)C(=O)N4CCCC4)cc3F)ccnc2cc1OCC1CCNCC1` [Example 284, N-[3-fluoro-4-({6-(methyloxy)-7-[(piperidin-4-ylmethyl)oxy]quinolin-4-yl}oxy)phenyl]-N′-[(1S)-2-oxo-1-(phenylmethyl)-2-pyrrolidin-1-ylethyl]ethanediamide], the half-maximal inhibitory concentration (IC50) in assay [1] was 50 to 500 nM; in assay [2], under 50 nM; against c-Kit kinase it was 50 to 500 nM; in assay [3], 500 to 5000 nM; in assay [4], 500 to 5000 nM.
Regarding `COc1cc2c(Oc3ccc(NC(=O)C(=O)NCCc4ccccc4)cc3F)ncnc2cc1OCC1C[C@H]2CNC[C@H]2C1` (stereo partly drawn) [Example 285, N-{3-fluoro-4-[(6-(methyloxy)-7-{[(3aR,6aS)-octahydrocyclopenta[c]pyrrol-5-ylmethyl]oxy}quinazolin-4-yl)oxy]phenyl}-N′-(2-phenylethyl)ethanediamide], the IC50 (in assay [1]; in assay [2]; against c-Kit kinase; in assay [3]; in assay [4]) was under 50 nM in each case.
Consider `COc1cc2c(Oc3ccc(NC(=O)C(=O)NCCc4ccc(N)cc4)cc3F)ccnc2cc1OCC1CCNCC1` [Example 286, N-[2-(4-aminophenyl)ethyl]-N′-[3-fluoro-4-({6-(methyloxy)-7-[(piperidin-4-ylmethyl)oxy]quinolin-4-yl}oxy)phenyl]ethanediamide], for which the half-maximal inhibitory concentration (IC50) is 50 to 500 nM in assay [1]; under 50 nM in assay [2]; 50 to 500 nM against c-Kit kinase; 50 to 500 nM in assay [3]; 50 to 500 nM in assay [4].
As to `COc1cc2c(Oc3ccc(NC(=O)C(=O)N4CCC(Cc5ccccc5)CC4)cc3F)ccnc2cc1OCC1CCNCC1` [Example 287, N-[3-fluoro-4-({6-(methyloxy)-7-[(piperidin-4-ylmethyl)oxy]quinolin-4-yl}oxy)phenyl]-2-oxo-2-[4-(phenylmethyl)piperidin-1-yl]acetamide], the 50% inhibitory concentration (IC50) in assay [1] is under 50 nM; in assay [2], under 50 nM; on c-Kit kinase, 50 to 500 nM; in assay [3], 50 to 500 nM; in assay [4] it was under 50 nM.
For the molecule `COc1cc2nccc(Oc3ccc(NC(=O)CC(=O)Nc4ccc(F)cc4)cc3)c2cc1OC` [Example 288, N-(4-{[6,7-bis(methyloxy)quinolin-4-yl]oxy}phenyl)-N′-(4-fluorophenyl)propanediamide], the half-inhibitory concentration (IC50) (in assay [1]; in assay [2]; against c-Kit kinase; in assay [3]; in assay [4]) was under 50 nM each time.
In the case of `COc1cc2nccc(Oc3ncc(NC(=O)CC(=O)Nc4ccccc4)cc3Cl)c2cc1OC` [Example 291, N-(6-{[6,7-bis(methyloxy)quinolin-4-yl]oxy}-5-chloropyridin-3-yl)-N′-phenylpropanediamide], the concentration for half-maximal inhibition (IC50) is under 50 nM in assay [1]; under 50 nM in assay [2]; 50 to 500 nM against c-Kit kinase; 500 to 5000 nM in assay [3]; 500 to 5000 nM in assay [4].
Consider `COc1cc2nccc(Oc3ncc(NC(=O)C(C)(C)C(=O)Nc4ccc(F)cc4)cc3Cl)c2cc1OC` [Example 292, N-(6-{[6,7-bis(methyloxy)quinolin-4-yl]oxy}-5-chloropyridin-3-yl)-N′-(4-fluorophenyl)-2,2-dimethylpropanediamide], for which the IC50 in assay [1] was under 50 nM; in assay [2], 50 to 500 nM; at c-Kit kinase it was 50 to 500 nM; in assay [3], 50 to 500 nM; in assay [4], 50 to 500 nM.
Consider `CCNC(=O)C(=O)Nc1ccc(Oc2ccnc3cc(OCC4CCNCC4)c(OC)cc23)c(F)c1` [Example 293, N-ethyl-N′-[3-fluoro-4-({6-(methyloxy)-7-[(piperidin-4-ylmethyl)oxy]quinolin-4-yl}oxy)phenyl]ethanediamide], for which the IC50 in assay [1] was 50 to 500 nM; in assay [2], under 50 nM; at c-Kit kinase it was 50 to 500 nM; in assay [3], 50 to 500 nM; in assay [4] it was 50 to 500 nM.
In the case of `COc1cc2c(Oc3ccc(NC(=O)C(=O)NC(C)C)cc3F)ccnc2cc1OCC1CCNCC1` [Example 294, N-[3-fluoro-4-({6-(methyloxy)-7-[(piperidin-4-ylmethyl)oxy]quinolin-4-yl}oxy)phenyl]-N′-(1-methylethyl)ethanediamide], the IC50 is 50 to 500 nM in assay [1]; under 50 nM in assay [2]; 50 to 500 nM on c-Kit kinase; 500 to 5000 nM in assay [3]; 50 to 500 nM in assay [4].
Take `CCCCNC(=O)C(=O)Nc1ccc(Oc2ccnc3cc(OCC4CCNCC4)c(OC)cc23)c(F)c1` [Example 295, N-butyl-N′-[3-fluoro-4-({6-(methyloxy)-7-[(piperidin-4-ylmethyl)oxy]quinolin-4-yl}oxy)phenyl]ethanediamide]: the concentration for half-maximal inhibition (IC50) in assay [1] is 50 to 500 nM; in assay [2] it was under 50 nM; against c-Kit kinase it was 50 to 500 nM; in assay [3], 50 to 500 nM; in assay [4] it was 50 to 500 nM.
Take `COCCNC(=O)C(=O)Nc1ccc(Oc2ccnc3cc(OCC4CCNCC4)c(OC)cc23)c(F)c1` [Example 296, N-[3-fluoro-4-({6-(methyloxy)-7-[(piperidin-4-ylmethyl)oxy]quinolin-4-yl}oxy)phenyl]-N′-[2-(methyloxy)ethyl]ethanediamide]: the IC50 in assay [1] was 50 to 500 nM; in assay [2], 50 to 500 nM; on c-Kit kinase, 50 to 500 nM; in assay [3], 500 to 5000 nM; in assay [4] it was 50 to 500 nM.
As to `COc1cc2c(Oc3ccc(NC(=O)C(=O)NCC4CC4)cc3F)ccnc2cc1OCC1CCNCC1` [Example 297, N-(cyclopropylmethyl)-N′-[3-fluoro-4-({6-(methyloxy)-7-[(piperidin-4-ylmethyl)oxy]quinolin-4-yl}oxy)phenyl]ethanediamide], the IC50 in assay [1] was 50 to 500 nM; in assay [2], under 50 nM; at c-Kit kinase it was 50 to 500 nM; in assay [3] it was 50 to 500 nM; in assay [4] it was 50 to 500 nM.
Consider `COc1cc2c(Oc3ccc(NC(=O)C(=O)NCCN4CCOCC4)cc3F)ccnc2cc1OCC1CCNCC1` [Example 298, N-[3-fluoro-4-({6-(methyloxy)-7-[(piperidin-4-ylmethyl)oxy]quinolin-4-yl}oxy)phenyl]-N′-(2-morpholin-4-ylethyl)ethanediamide], for which the IC50 is under 50 nM in assay [1]; 50 to 500 nM in assay [2]; 50 to 500 nM against c-Kit kinase; 50 to 500 nM in assay [3]; under 50 nM in assay [4].
